{
  "source": "patent US12391737B2",
  "about": "“Soluble NPY2 receptor agonists” (Boehringer Ingelheim International GmbH, priority 2020, dated 2025)",
  "key": {"Solubility determination": {"experiment": "Solubility determination", "conditions": "for Sol6: pH 6; for Sol7: pH 7", "how_it_was_run": "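Shake-flask style: 10 mg/ml peptide (TFA salt), 0.1 M sodium diphosphate pH 6.4/7.0, 600 rpm, 2 h, RT; filter; dilute 1 mg/ml in 50% MeCN; RP-UPLC, 0–100% B over 2 min, 50 °C. Solubility = sample/control area ratio. Final pH recorded.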"}, "[1]": {"target": "T1, Human Neuropeptide Y2 Receptor (Homo sapiens, UniProt P49146)", "T1 construct": "purchased CHEMICON HTS066M", "T1 sequence (P49146 1-381)": "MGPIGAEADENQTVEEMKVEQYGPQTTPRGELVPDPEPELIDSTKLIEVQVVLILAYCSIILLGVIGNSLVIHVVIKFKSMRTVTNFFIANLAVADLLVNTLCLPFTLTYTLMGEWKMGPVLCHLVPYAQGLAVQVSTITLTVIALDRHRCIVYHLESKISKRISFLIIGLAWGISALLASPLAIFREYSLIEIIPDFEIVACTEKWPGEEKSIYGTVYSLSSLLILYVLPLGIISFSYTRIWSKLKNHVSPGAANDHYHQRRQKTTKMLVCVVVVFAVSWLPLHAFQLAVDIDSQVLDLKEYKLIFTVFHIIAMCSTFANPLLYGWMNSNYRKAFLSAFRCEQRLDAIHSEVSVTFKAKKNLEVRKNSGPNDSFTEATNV", "experiment": "Radioligand binding competition assay (RLB)", "conditions": "Table 3, 125I-PYY(1-36) competition; read-out: Ki", "experimental": "The filtration RLB assay was carried out in 96-well plates in a final volume of 100 μl per well. Freeze-dried test peptides were dissolved in 100% dimethyl sulfoxide (DMSO) to stock solutions of 1 mM and serial dilutions were performed in assay buffer (50 mM HEPES, 5 mM MgCl2, 1 mM CaCl2, pH 7.4) containing 0.2% ovalbumin. […] Next, 80 μL membranes (HTS066M, ChemiSCREEN™ Human Neuropeptide Y2 Receptor Membrane Preparation, CHEMICON) were added to each well to give a final protein concentration of 0.5 μg/well. The plates were sealed and incubated at room temperature for 2 hours in a plate shaker set at 400 rpm. The incubation was stopped by vacuum filtration onto 0.5% polyethylene amine (PE) presoaked GF/C filters using a 96-well FilterMate™ harvester (Perkin Elmer) followed by four washes with 300 μl/well ice-cold wash buffer (50 mM HEPES, 500 mM NaCl, pH7.4). Filter plates were then dried for 60 min at room temperature and the bottom of the plates was sealed with backing tape UniFilter-96. Finally, 50 μl/well scintillation counter cocktail (Microscint20, Packard) was added and the radioactivity was counted in the Packard TopCount NXT scintillation counter. IC50 values (the half maximal inhibitory concentration of the agonist) were calculated by nonlinear regression analysis of sigmoidal dose-response curves."}},
  "data": [
    {"compound": "CC[C@H](C)[C@H](NC(=O)[C@H](CCC(=O)O)NC(=O)[C@H](CCC(=O)O)NC(=O)[C@@H]1CCCN1C(=O)[C@@H](NC(=O)[C@H](C)NC(=O)[C@H](CC(=O)O)NC(=O)[C@H](CCC(=O)O)NC(=O)[C@H](CCC(=O)O)NC(=O)[C@@H]1CCCN1C(=O)[C@H](CCCCNC(=O)CCCCCNC(=O)CC[C@H](NC(=O)CCCCCCCCCCCCCCCCC(=O)O)C(=O)O)NC(=O)[C@H](CCC(=O)O)NC(=O)[C@@H]1CCCN1C(=O)[C@H](C)NC(=O)CC(C)C)[C@@H](C)O)C(=O)N[C@@H](CCC(N)=O)C(=O)N[C@@H](CCCNC(=N)N)C(=O)N[C@@H](Cc1ccc(O)cc1)C(=O)N[C@@H](Cc1ccc(O)cc1)C(=O)N1CCC[C@H]1C(=O)N[C@@H](CO)C(=O)N[C@@H](CC(C)C)C(=O)N[C@@H](CCCNC(=N)N)C(=O)N[C@@H](Cc1c[nH]cn1)C(=O)N[C@@H](Cc1ccc(O)cc1)C(=O)N[C@@H](Cc1ccc(O)cc1)C(=O)N[C@@H](CC(N)=O)C(=O)N[C@@H](Cc1c[nH]c2ccccc12)C(=O)N[C@@H](CC(C)C)C(=O)N[C@H](C(=O)N[C@@H](CCCNC(=N)N)C(=O)N[C@@H](CCC(N)=O)C(=O)N[C@@H](CCCNC(=N)N)C(=O)N[C@@H](Cc1ccc(O)cc1)C(N)=O)[C@@H](C)O", "note": "[Compound 17, N{alpha-4}-(3-methylbutanoyl)-N{epsilon-7}-(6-[(4S)-4-carboxy-4-(17-carboxyheptadecanamido)butanamido]hexanoyl)[4A,7K,9E,13T,17I,18Q,22P,28Y,30W,31L]-hPYY(4-36)]", "values": [
      {"measurement": "Sol6", "setting": "Solubility determination", "value": 10.0, "unit": "mg/mL"},
      {"measurement": "Sol7", "setting": "Solubility determination", "value": 10.0, "unit": "mg/mL"},
      {"measurement": "Ki", "setting": "[1]", "value": 24.6, "unit": "nM"}
    ]},
    {"compound": "CC(C)CC(=O)N[C@@H](C)C(=O)N1CCC[C@H]1C(=O)N[C@@H](CCC(=O)O)C(=O)N[C@@H](CCCCNC(=O)CCCCCNC(=O)CC[C@H](NC(=O)CCCCCCCCCCCCCCCCC(=O)O)C(=O)O)C(=O)N1CCC[C@H]1C(=O)N[C@@H](CCC(=O)O)C(=O)N[C@@H](CCC(=O)O)C(=O)N[C@@H](CC(=O)O)C(=O)N[C@@H](C)C(=O)N[C@H](C(=O)N[C@@H](CCC(=O)O)C(=O)N[C@@H](CCC(=O)O)C(=O)N[C@@H](CCC(=O)O)C(=O)N[C@@H](CC(C)C)C(=O)N[C@@H](CCC(N)=O)C(=O)N[C@@H](CCCNC(=N)N)C(=O)N[C@@H](Cc1ccc(O)cc1)C(=O)N[C@@H](Cc1ccc(O)cc1)C(=O)N[C@H](C(=O)N[C@@H](CO)C(=O)N[C@@H](CC(C)C)C(=O)N[C@@H](CCCNC(=N)N)C(=O)N[C@@H](Cc1c[nH]cn1)C(=O)N[C@@H](Cc1ccc(O)cc1)C(=O)N[C@@H](Cc1ccc(O)cc1)C(=O)N[C@@H](CC(N)=O)C(=O)N[C@@H](Cc1c[nH]c2ccccc12)C(=O)N[C@@H](CC(C)C)C(=O)N[C@H](C(=O)N[C@@H](CCCNC(=N)N)C(=O)N[C@@H](CCC(N)=O)C(=O)N[C@@H](CCCNC(=N)N)C(=O)N[C@@H](Cc1ccc(O)cc1)C(N)=O)[C@@H](C)O)C(C)C)[C@@H](C)O", "note": "[Compound 19, N{alpha-4}-(3-methylbutanoyl)-N{epsilon-7}-(6-[(4S)-4-carboxy-4-(17-carboxyheptadecanamido)butanamido]hexanoyl)[4A,7K,9E,13T,14E,18Q,22V,28Y,30W,31L]-hPYY(4-36)]", "values": [
      {"measurement": "Sol6", "setting": "Solubility determination", "value": 10.0, "unit": "mg/mL"},
      {"measurement": "Sol7", "setting": "Solubility determination", "value": 9.2, "unit": "mg/mL"},
      {"measurement": "Ki", "setting": "[1]", "value": 9.63, "unit": "nM"}
    ]},
    {"compound": "CC(C)CC(=O)N[C@@H](C)C(=O)N1CCC[C@H]1C(=O)N[C@@H](C)C(=O)N[C@@H](CCCCNC(=O)CCCCCNC(=O)CC[C@H](NC(=O)CCCCCCCCCCCCCCCCC(=O)O)C(=O)O)C(=O)N1CCC[C@H]1C(=O)N[C@@H](CCC(=O)O)C(=O)N[C@@H](CCC(=O)O)C(=O)N[C@@H](CC(=O)O)C(=O)N[C@@H](C)C(=O)N[C@@H](CO)C(=O)N1CCC[C@H]1C(=O)N[C@@H](CCC(=O)O)C(=O)N[C@@H](CCC(=O)O)C(=O)N[C@@H](CC(C)C)C(=O)N[C@@H](CCC(N)=O)C(=O)N[C@@H](CCCNC(=N)N)C(=O)N[C@@H](Cc1ccc(O)cc1)C(=O)N[C@@H](CCC(N)=O)C(=O)N[C@H](C(=O)N[C@@H](CO)C(=O)N[C@@H](CC(C)C)C(=O)N[C@@H](CCCNC(=N)N)C(=O)N[C@@H](Cc1c[nH]cn1)C(=O)N[C@@H](Cc1ccc(O)cc1)C(=O)N[C@@H](Cc1ccc(O)cc1)C(=O)N[C@@H](CC(N)=O)C(=O)N[C@@H](Cc1c[nH]c2ccccc12)C(=O)N[C@@H](CC(C)C)C(=O)N[C@H](C(=O)N[C@@H](CCCNC(=N)N)C(=O)N[C@@H](CCC(N)=O)C(=O)N[C@@H](CCCNC(=N)N)C(=O)N[C@@H](Cc1ccc(O)cc1)C(N)=O)[C@@H](C)O)C(C)C", "note": "[Compound 20, N{alpha-4}-(3-methylbutanoyl)-N{epsilon-7}-(6-[(4S)-4-carboxy-4-(17-carboxyheptadecanamido)butanamido]hexanoyl)[4A,6A,7K,9E,18Q,21Q,22V,28Y,30W,31L]-hPYY(4-36)]", "values": [
      {"measurement": "Sol6", "setting": "Solubility determination", "value": ">10.0", "unit": "mg/mL"},
      {"measurement": "Sol7", "setting": "Solubility determination", "value": 10.0, "unit": "mg/mL"},
      {"measurement": "Ki", "setting": "[1]", "value": 2.41, "unit": "nM"}
    ]},
    {"compound": "CC(C)CC(=O)N[C@@H](C)C(=O)N1CCC[C@H]1C(=O)N[C@@H](CCC(=O)O)C(=O)N[C@@H](CCCCNC(=O)CCCCCNC(=O)CC[C@H](NC(=O)CCCCCCCCCCCCCCCCC(=O)O)C(=O)O)C(=O)N1CCC[C@H]1C(=O)N[C@@H](CCC(=O)O)C(=O)N[C@@H](CCC(=O)O)C(=O)N[C@@H](CC(=O)O)C(=O)N1CCC[C@H]1C(=O)N[C@H](C(=O)N1CCC[C@H]1C(=O)N[C@@H](CCC(=O)O)C(=O)N[C@@H](CCC(=O)O)C(=O)N[C@@H](CC(C)C)C(=O)N[C@@H](CCC(N)=O)C(=O)N[C@@H](CCCNC(=N)N)C(=O)N[C@@H](Cc1ccc(O)cc1)C(=O)N[C@@H](Cc1ccc(O)cc1)C(=O)N[C@H](C(=O)N[C@@H](CO)C(=O)N[C@@H](CC(C)C)C(=O)N[C@@H](CCCNC(=N)N)C(=O)N[C@@H](Cc1c[nH]cn1)C(=O)N[C@@H](Cc1ccc(O)cc1)C(=O)N[C@@H](Cc1ccc(O)cc1)C(=O)N[C@@H](CC(N)=O)C(=O)N[C@@H](Cc1c[nH]c2ccccc12)C(=O)N[C@@H](CC(C)C)C(=O)N[C@H](C(=O)N[C@@H](CCCNC(=N)N)C(=O)N[C@@H](CCC(N)=O)C(=O)N[C@@H](CCCNC(=N)N)C(=O)N[C@@H](Cc1ccc(O)cc1)C(N)=O)[C@@H](C)O)C(C)C)[C@@H](C)O", "note": "[Compound 22, N{alpha-4}-(3-methylbutanoyl)-N{epsilon-7}-(6-[(4S)-4-carboxy-4-(17-carboxyheptadecanamido)butanamido]hexanoyl)[4A,7K,9E,12P,13T,18Q,22V,28Y,30W,31L]-hPYY(4-36)]", "values": [
      {"measurement": "Sol6", "setting": "Solubility determination", "value": 9.7, "unit": "mg/mL"},
      {"measurement": "Sol7", "setting": "Solubility determination", "value": 9.8, "unit": "mg/mL"},
      {"measurement": "Ki", "setting": "[1]", "value": 4.98, "unit": "nM"}
    ]}
  ]
}
